Patent US20050148534A1, “Small molecule compositions and methods for increasing drug efficiency using compositions thereof” (priority 2003, published 2005)
Where “and” joins values, the source holds several entries; their conditions need not be identical. Equal values may be shown once. Read-outs that look alike come from different tables or passages of the source.

Assays:
[1] = molecular target: T1, TK2 (Homo sapiens, UniProt O00142); parameters: unit not given here; conditions: substrate activity, literature (Johansson et al.; Eriksson et al.; Wang et al.), source per Table 3, cited from earlier work
T1 sequence (O00142 34-265): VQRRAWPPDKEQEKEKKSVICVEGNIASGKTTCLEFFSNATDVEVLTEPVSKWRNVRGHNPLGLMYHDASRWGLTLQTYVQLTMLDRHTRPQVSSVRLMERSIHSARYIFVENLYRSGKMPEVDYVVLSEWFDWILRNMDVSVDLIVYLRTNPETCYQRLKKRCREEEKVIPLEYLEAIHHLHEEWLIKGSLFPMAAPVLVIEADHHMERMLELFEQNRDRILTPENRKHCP

[2] = molecular target: T2, TK1 (Homo sapiens, UniProt P04183); conditions: substrate activity; literature (Johansson et al.; Eriksson et al., BBCR 1991; 176, 586), source per Table 3; cited from earlier work
T2 sequence (P04183 1-234): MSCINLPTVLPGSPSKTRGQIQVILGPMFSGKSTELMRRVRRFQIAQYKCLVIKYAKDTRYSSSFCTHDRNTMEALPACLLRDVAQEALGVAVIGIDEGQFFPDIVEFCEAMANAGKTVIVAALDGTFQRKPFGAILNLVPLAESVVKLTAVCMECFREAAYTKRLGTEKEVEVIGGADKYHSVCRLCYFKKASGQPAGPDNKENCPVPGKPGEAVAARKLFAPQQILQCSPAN

[3] = molecular target: deoxycytidine kinase (dCK) (Homo sapiens, UniProt P27707); conditions: substrate activity; literature (Johansson et al.; Eriksson et al.; Wang et al.), source per Table 3; cited from earlier work
[4] = tested on: tubulin; test: Fluorescence-based microtubule polymerization assay (MPA); assay type: biochemical; conditions: mean percentage of paclitaxel or vinblastine activity; 0.75-10 micromolar
Excerpt: Drug-linker constructs may further be screened using functional assays predictive of biological activity. […] Tubulin assembly or inhibition thereof may be monitored by fluorescence using the CytoDYNAMIX Screen™ 10 kit available from Cytoskeleton (1830 S. Acoma St., Denver, Colo.). […] Emission is monitored at 405 nm with excitation at 360 nm. […] Tubulin assembly or inhibition may also be monitored by light scattering which is approximated by the apparent absorption at 350 nm. For paclitaxel drug conjugates BSA is employed to prevent aggregation and glycerol, which is a tubulin polymerization enhancer, is omitted from the kit to increase the signal to noise ratio.
The assay kit (#BK011) was purchased from Cytoskeleton (Denver, Colo.). The assays were carried out according to the manufacturer's instructions, except that 1 mg/ml BSA (Sigma #A3059) was included in all assays. […] Parent drugs and conjugates were tested at 0.75, 1.5, 3 and 10 micromolar final concentration and results represent a comparison of conjugate and parent drug curves obtained from the linear range of the dose responses.

Chain of deoxycytidine kinase (dCK) (P27707 whole entry, species assumed): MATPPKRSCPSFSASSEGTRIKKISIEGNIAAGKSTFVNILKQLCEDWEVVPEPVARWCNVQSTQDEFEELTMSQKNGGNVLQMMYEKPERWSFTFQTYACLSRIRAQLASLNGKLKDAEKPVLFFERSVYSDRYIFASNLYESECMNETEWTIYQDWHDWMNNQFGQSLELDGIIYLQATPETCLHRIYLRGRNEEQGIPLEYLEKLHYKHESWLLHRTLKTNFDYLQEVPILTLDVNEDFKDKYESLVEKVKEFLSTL

SMILES | TK2 [1] | TK1 [2] | dCK [3] | also measured
Nc1ccn([C@H]2C[C@H](O)[C@@H](CO)O2)c(=O)n1 [R4 = H, R5 = H, R3 = OH (dC), dC] | 90 | <1 | – | TK2 ([1]; listed as R2 = H, X = C (dC)): 90; TK2 ([1]; listed as R4 = H, R5 = H, R2 = H (dC)): 90; TK2 ([1]; listed as β-D-dC): 93
Cc1cn([C@H]2CC[C@@H](CO)O2)c(=O)[nH]c1=O [R4 = H, R3 = H] | 4 | 40 | <1 | –
Nc1cc[nH]c(=O)n1 [R4 = OH, R5 = H, R2 = H (Cytosine), Cytosine] | <1 | <1 | 20 | –
Cc1cn([C@H]2C[C@H](O)[C@@H](CO)O2)c(=O)[nH]c1=O [R4 = H, R3 = OH (Thy), Thy] | 100 | 100 | 2 | –
O=c1[nH]c(=O)n([C@H]2C[C@H](O)[C@@H](CO)O2)cc1F [R2 = F, R4 = H, R3 = OH] | 90 | 90 | – | –
Cc1cn([C@H]2C[C@H](CN=[N+]=[N-])[C@@H](CO)O2)c(=O)[nH]c1=O [R4 = H, R3 = CH2N3] | 3 | 15 | – | –
Cc1cn([C@H]2C[C@H](F)[C@@H](CO)O2)c(=O)[nH]c1=O [R4 = H, R3 = F (FLT), FLT] | <1 | 30 | <1 | –
O=c1ccn([C@H]2C[C@H](O)[C@@H](CO)O2)c(=O)[nH]1 [R2 = H, R4 = H, R3 = OH (dU), dU] | 100 | 100 | 6 | –
Cc1cn([C@H]2C[C@H](N=[N+]=[N-])[C@@H](CO)O2)c(=O)[nH]c1=O [R4 = H, R3 = N3 (AZT), AZT] | 5 | 50 and 40 | <1 | –
CCc1cn([C@H]2C[C@H](O)[C@@H](CO)O2)c(=O)[nH]c1=O [R2 = Et, R4 = H, R3 = OH] | 10 | 80 | – | –
Cc1cn([C@@H]2O[C@H](CO)[C@@H](O)[C@@H]2F)c(=O)[nH]c1=O [R2 = CH3, R5 = F (FMAU), FMAU] | 100 | 45 | – | –
C#C[C@H]1C[C@H](n2cc(C)c(=O)[nH]c2=O)O[C@@H]1CO [R4 = H, R3 = CCH] | <1 | <1 | – | –
Nc1ccn([C@@H]2O[C@H](CO)[C@@H](O)[C@@H]2O)c(=O)n1 [R4 = H, R5 = OH, R3 = OH (Cytosar, AraC), AraC] | <1 | <1 | – | –
O=c1[nH]c(=O)n([C@@H]2O[C@H](CO)[C@@H](O)[C@@H]2F)cc1I [R2 = I, R5 = F (FIAU), FIAU] | 90 | 42 | – | –
Cc1cn([C@@H]2O[C@H](CO)[C@@H](O)[C@H]2O)c(=O)[nH]c1=O [R4 = OH, R3 = OH (RiboThymidine), RiboThymidine] | 3 | 2 | – | –
CC(=O)O[C@H]1C(=O)[C@]2(C)[C@@H](OC(=O)NCCCCCCn3c(=O)c(C)cn([C@@H]4C[C@H](O)[C@@H](CO)O4)c3=O)C[C@H]3OC[C@@]3(OC(C)=O)[C@H]2[C@H](OC(=O)c2ccccc2)[C@]2(O)C[C@H](OC(=O)[C@H](O)[C@@H](NC(=O)c3ccccc3)c3ccccc3)C(C)=C1C2(C)C [PXL-7Ca-ALK(6)-N3-αTHY] | – | – | – | Ave. MPA Act [4]: B (B=60-100)
O=c1[nH]c(=O)n([C@H]2C[C@H](O)[C@@H](CO)O2)cc1Br [R2 = Br, R4 = H, R3 = OH] | 10 | 80 | <1 | –
CC(=O)O[C@@]12CO[C@@H]1C[C@H](O)[C@@]1(C)C(=O)[C@H](OC(=O)CCCCCN)C3=C(C)[C@@H](OC(=O)[C@H](O)[C@@H](NC(=O)c4ccccc4)c4ccccc4)C[C@@](O)([C@@H](OC(=O)c4ccccc4)[C@H]21)C3(C)C [PXL-10Es-ALK(5)-NH2] | – | – | – | Ave. MPA Act [4]: B (B=60-100)
C=CCOC(=O)O[C@@H](C(=O)O[C@H]1C[C@@]2(O)[C@@H](OC(=O)c3ccccc3)[C@@H]3[C@]4(OC(C)=O)CO[C@@H]4C[C@H](O)[C@@]3(C)C(=O)[C@H](OC(C)=O)C(=C1C)C2(C)C)[C@@H](NC(=O)c1ccccc1)c1ccccc1 [PXL-2′Alloc] | – | – | – | Ave. MPA Act [4]: A (A<60)
